Source: patent US20240270762A1, “PENICILLIN-BINDING PROTEIN INHIBITORS” (priority 2021, published 2024)
In brackets after ≈: the same amount, converted by molar mass.

Columns and labels:
[1] = biological target: T1, A. baumannii PBP1a (Acinetobacter baumannii, UniProt A0ABX6CK30); experiment: Bocillin-FL competition binding via gel filtration, A. baumannii PBP1a; settings: competition binding assay using Bocillin-FL via gel filtration; read-out: A. baumannii PBP1a Potency
T1 sequence (A0ABX6CK30 1-851): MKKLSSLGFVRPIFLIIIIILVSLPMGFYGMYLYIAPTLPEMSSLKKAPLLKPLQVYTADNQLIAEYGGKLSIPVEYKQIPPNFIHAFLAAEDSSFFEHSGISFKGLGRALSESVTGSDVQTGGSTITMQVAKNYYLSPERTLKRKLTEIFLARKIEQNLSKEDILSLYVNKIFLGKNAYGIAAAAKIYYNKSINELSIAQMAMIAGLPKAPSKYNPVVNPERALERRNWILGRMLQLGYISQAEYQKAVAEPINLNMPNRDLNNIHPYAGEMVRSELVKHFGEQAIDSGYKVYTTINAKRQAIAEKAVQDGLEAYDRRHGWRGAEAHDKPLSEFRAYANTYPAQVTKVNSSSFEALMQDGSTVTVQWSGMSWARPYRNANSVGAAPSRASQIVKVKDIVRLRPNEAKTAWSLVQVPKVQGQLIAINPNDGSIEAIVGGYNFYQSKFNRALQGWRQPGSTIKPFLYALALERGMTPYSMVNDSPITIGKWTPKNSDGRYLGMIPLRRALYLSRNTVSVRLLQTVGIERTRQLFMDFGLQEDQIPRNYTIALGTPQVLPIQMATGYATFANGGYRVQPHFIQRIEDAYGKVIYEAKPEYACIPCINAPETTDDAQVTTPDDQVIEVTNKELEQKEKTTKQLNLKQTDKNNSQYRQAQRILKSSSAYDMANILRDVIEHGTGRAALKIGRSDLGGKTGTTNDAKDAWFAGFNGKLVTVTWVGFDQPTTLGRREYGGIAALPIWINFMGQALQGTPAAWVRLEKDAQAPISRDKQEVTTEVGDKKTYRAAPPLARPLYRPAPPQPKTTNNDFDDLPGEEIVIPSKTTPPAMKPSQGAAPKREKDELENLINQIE
In short: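 Competitive equilibrium binding with Bocillin-FL reporter: PBP pre-incubated with inhibitor dilutions, Bocillin-FL added, 15 min incubation. Labelled enzyme isolated by size-exclusion spin plates, fluorescence measured; EC50 obtained by fitting bound fraction against inhibitor concentration with a Hill-coefficient model.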

[2] = system: N. gonorrhoeae ATCC 49226; experiment: Liquid broth MIC in Fastidious broth; settings: Neisseria gonorrhoeae, ATCC49226, read-out: Minimum Inhibitory Concentration, ATCC 49226
[3] = system: N. gonorrhoeae FA1090; experiment: Liquid broth MIC in Fastidious broth; settings: Neisseria gonorrhoeae, FA1090, read-out: Minimum Inhibitory Concentration, FA 1090
[4] = system: N. gonorrhoeae MS11; experiment: Liquid broth MIC in Fastidious broth; settings: Neisseria gonorrhoeae, MS11, read-out: Minimum Inhibitory Concentration, MS11
[5] = system: N. gonorrhoeae WHO G; experiment: Liquid broth MIC in Fastidious broth; settings: Neisseria gonorrhoeae, read-out: Minimum Inhibitory Concentration, WHO G
[6] = system: N. gonorrhoeae WHO L; experiment: Liquid broth MIC in Fastidious broth; settings: Neisseria gonorrhoeae, read-out: Minimum Inhibitory Concentration, WHO L
[7] = system: N. gonorrhoeae WHO M; experiment: Liquid broth MIC in Fastidious broth; settings: Neisseria gonorrhoeae, read-out: Minimum Inhibitory Concentration, WHO M
[8] = system: N. gonorrhoeae WHO K; experiment: Liquid broth MIC in Fastidious broth; settings: Neisseria gonorrhoeae, read-out: Minimum Inhibitory Concentration, WHO K
[9] = system: N. gonorrhoeae WHO X; experiment: Liquid broth MIC in Fastidious broth; settings: Neisseria gonorrhoeae, read-out: Minimum Inhibitory Concentration, WHO X
[10] = system: N. gonorrhoeae CDC-0197; experiment: Liquid broth MIC in Fastidious broth; settings: Neisseria gonorrhoeae, CDC0197, read-out: Minimum Inhibitory Concentration, CDC-0197

## O=C(NCCCN1CCN(C(=O)NC(C(=O)N[C@H]2Cc3ccc(F)c(C(=O)O)c3OB2O)c2cc(F)c(O)c(O)c2Cl)C(=O)C1=O)c1ccncc1Cl (stereo partly drawn) [Example 295, (3R)-3-(2-(2-chloro-5-fluoro-3,4-dihydroxyphenyl)-2-(4-(3-(3-chloroisonicotinamido)propyl)-2,3-dioxopiperazine-1-carboxamido)acetamido)-7-fluoro-2-hydroxy-3,4-dihydro-2H-benzo[e][1,2]oxaborinine-8-carboxylic acid]
[1]
  EC50: 10 to 50 µM
[2]
  MIC: 16 to 32 µg/mL (≈ 20.5 to 41.1 µM)
[3]
  MIC: 1 to 2 µg/mL (≈ 1.28 to 2.57 µM)
[4]
  MIC: 16 to 32 µg/mL (≈ 20.5 to 41.1 µM)
[5]
  MIC: 16 to 32 µg/mL (≈ 20.5 to 41.1 µM)
[6]
  MIC: > 64 µg/mL
[7]
  MIC: 16 to 32 µg/mL (≈ 20.5 to 41.1 µM)
[8]
  MIC: > 64 µg/mL
[9]
  MIC: > 64 µg/mL
[10]
  MIC: > 64 µg/mL

## O=C(NCCCN1CCN(C(=O)N[C@@H](C(=O)N[C@H]2Cc3ccc(F)c(C(=O)O)c3OB2O)c2cc(F)c(O)c(O)c2Cl)C(=O)C1=O)c1ccncc1O [Example 296, (R)-3-((R)-2-(2-chloro-5-fluoro-3,4-dihydroxyphenyl)-2-(4-(3-(3-hydroxyisonicotinamido)propyl)-2,3-dioxopiperazine-1-carboxamido)acetamido)-7-fluoro-2-hydroxy-3,4-dihydro-2H-benzo[e][1,2]oxaborinine-8-carboxylic acid]
[1]
  EC50: < 10 µM
[2]
  MIC: 16 to 32 µg/mL (≈ 21 to 42.1 µM)
[3]
  MIC: 1 to 2 µg/mL (≈ 1.31 to 2.63 µM)
[4]
  MIC: 16 to 32 µg/mL (≈ 21 to 42.1 µM)
[5]
  MIC: 16 to 32 µg/mL (≈ 21 to 42.1 µM)
[6]
  MIC: > 64 µg/mL
[7]
  MIC: 16 to 32 µg/mL (≈ 21 to 42.1 µM)
[8]
  MIC: > 64 µg/mL
[9]
  MIC: > 64 µg/mL
[10]
  MIC: > 64 µg/mL

## Cc1cnccc1C(=O)NCCCN1CCN(C(=O)NC(C(=O)N[C@H]2Cc3ccc(F)c(C(=O)O)c3OB2O)c2cc(F)c(O)c(O)c2Cl)C(=O)C1=O (stereo partly drawn) [Example 297, (3R)-3-(2-(2-chloro-5-fluoro-3,4-dihydroxyphenyl)-2-(4-(3-(3-methylisonicotinamido)propyl)-2,3-dioxopiperazine-1-carboxamido)acetamido)-7-fluoro-2-hydroxy-3,4-dihydro-2H-benzo[e][1,2]oxaborinine-8-carboxylic acid]
[1]
  EC50: 10 to 50 µM
[2]
  MIC: 16 to 32 µg/mL (≈ 21.1 to 42.2 µM)
[3]
  MIC: 1 to 2 µg/mL (≈ 1.32 to 2.64 µM)
[4]
  MIC: 16 to 32 µg/mL (≈ 21.1 to 42.2 µM)
[5]
  MIC: 16 to 32 µg/mL (≈ 21.1 to 42.2 µM)
[6]
  MIC: > 64 µg/mL
[7]
  MIC: 16 to 32 µg/mL (≈ 21.1 to 42.2 µM)
[8]
  MIC: > 64 µg/mL
[9]
  MIC: > 64 µg/mL
[10]
  MIC: > 64 µg/mL

## Cc1cc(C(=O)NCCCN2CCN(C(=O)N[C@@H](C(=O)N[C@H]3Cc4ccc(F)c(C(=O)O)c4OB3O)c3cc(F)c(O)c(O)c3Cl)C(=O)C2=O)ccn1 [Example 298, (R)-3-((R)-2-(2-chloro-5-fluoro-3,4-dihydroxyphenyl)-2-(4-(3-(2-methylisonicotinamido)propyl)-2,3-dioxopiperazine-1-carboxamido)acetamido)-7-fluoro-2-hydroxy-3,4-dihydro-2H-benzo[e][1,2]oxaborinine-8-carboxylic acid]
[1]
  EC50: 10 to 50 µM
[2]
  MIC: 16 to 32 µg/mL (≈ 21.1 to 42.2 µM)
[3]
  MIC: 1 to 2 µg/mL (≈ 1.32 to 2.64 µM)
[4]
  MIC: 16 to 32 µg/mL (≈ 21.1 to 42.2 µM)
[5]
  MIC: 16 to 32 µg/mL (≈ 21.1 to 42.2 µM)
[6]
  MIC: > 64 µg/mL
[7]
  MIC: 16 to 32 µg/mL (≈ 21.1 to 42.2 µM)
[8]
  MIC: > 64 µg/mL
[9]
  MIC: > 64 µg/mL
[10]
  MIC: > 64 µg/mL
